Where two headings read alike, the source gives them in different places.
Assays:
[1] = system: Luciferase gene under the control of the ARE-element of the gene AKR1C2 (KeratinoSens cell line); experiment: KeratinoSens assay for skin sensitization: luciferase gene induction; conditions: for Concentration for 1.5-fold gene induction (EC 1.5 in μM): 48 h, n.i. = no induction above threshold of 1.5; for Imax (fold maximal gene induction): 48 h incubation, 0.98 to 2000 μM, vs DMSO controls
Experimental: (§1) Sensitization is measured by the commercially-available and universally-accepted KeratinoSens™ test, which compares the potential skin sensitization risk of chemicals.
(§2) KeratinoSens cells were grown for 24 h in 96-well plates. The medium was then replaced with medium containing the test chemical and the solvent dimethylsulfoxide (DMSO) at a final level of 1%. Each compound was tested at 12 binary dilutions in the range from 0.98 to 2000 μM. Cells were incubated for 48 h with the test agents, and then luciferase activity and cytotoxicity were determined. This full procedure was repeated three times for each chemical. For each chemical in each repetition and at each concentration, the gene induction compared to DMSO controls and the wells with statistically significant induction over the threshold of 1.5 (i.e. 50% enhanced gene activity) were determined. Furthermore, the maximal fold-induction (Imax) and the EC1.5 value (concentration in μM for induction above the threshold) were calculated.
(§3) Compounds were tested using the commercial KeratinoSens™ assay for skin sensitization.

KeratinoSens cells = experiment: KeratinoSens assay: cytotoxicity / cellular viability; conditions: 48 h
Experimental: KeratinoSens cells were grown for 24 h in 96-well plates. The medium was then replaced with medium containing the test chemical and the solvent dimethylsulfoxide (DMSO) at a final level of 1%. Each compound was tested at 12 binary dilutions in the range from 0.98 to 2000 μM. Cells were incubated for 48 h with the test agents, and then luciferase activity and cytotoxicity were determined. This full procedure was repeated three times for each chemical.
as §3

[2] = target: T1, test peptide Cor1C-420 (Ac-NKKCDLF) (Homo sapiens, UniProt Q9ULV4, I423F); experiment: Peptide reactivity assay for skin sensitization (similar to DPRA), LC-MS; assay type: biochemical; conditions: 37° C., 1 mM test chemical, 0.1 mM peptide
T1 construct: purchased Genscript Inc., Piscataway, N.J., USA
Experimental: A second method to determine allergenic potential of chemicals is the DPRA direct peptide assay (OECD TG 442c). It is based on the fact that allergenic chemicals must react with a peptide/protein in order to be immunogenic.
A peptide reactivity assay (A. Natsch, H. Gfeller, Toxicol. Sci 2008, 106, 464-478) was conducted similarly to the DPRA assay: The test chemicals were dissolved to a final concentration of 4 mM in acetonitrile and 250 μl of this solution were added to 2 ml HPLC vials. The test peptide Cor1C-420 with the sequence Ac-NKKCDLF (Genscript Inc., Piscataway, N.J., USA), was dissolved at 0.133 mM in 20 mM phosphate buffer at pH 7.5, and 750 μl of this solution were added to each test vial (final concentrations: 1 mM of test chemical and 0.1 mM of peptide in 25% acetonitrile; ratio 1:10 as in the DPRA assay). The samples were incubated for 1-24 h at 37° C. and at regular intervals they were analysed by LC-MS analysis on a VELOS PRO Mass spectrometer (Thermo […], San Jose, Calif., U.S.A.) operated in the ESl(+) mode. The temperature of the capillary was kept at 275° C. Mass spectra were recorded from 200-2000 amu. […]
Two endpoints are measured with this assay: • a) Depletion of the parent peptide. The mass of the protonated parent peptide is measured and the corresponding peak integrated (% depletion; FIG. 2). […]

[3] = system: Luciferase gene under the control of the ARE-element of the gene AKR1C2 (KeratinoSens cell line)
Experimental: as §1, §2, §3

| Compound | sensitization rating by the KeratinoSens assay [1] | induction of luciferase activity above the 1.5-fold threshold ([1]; KeratinoSens) | Concentration for 1.5-fold gene induction (EC 1.5 in μM) ([1]; KeratinoSens) | Imax (fold maximal gene induction) ([1]; KeratinoSens) [fold] | Concentration for 50% Cytotoxicity (KeratinoSens cells) [µM] | levels of peptide adducts, fold lower as compared to Damascone delta ([2]; after 1 h) [fold] | peptide depletion ([2]; over the 24 h experiment) | concentration at which the luciferase gene is clearly induced [3] [µM] | maximal gene induction over control [3] [fold] | sensitization rating by the KeratinoSens assay [3] |
| --- | --- | --- | --- | --- | --- | --- | --- | --- | --- | --- |
| C/C=C(\C)C(=O)[C@@H]1[C@@H](C)C=CCC1(C)C (relative stereo) [Example 1, (2E,1′R*,2′S*)-2-Methyl-(2′,6′,6′-trimethylcyclohex-3′-en-1′-yl)but-2-en-1-one] | non-sensitizing | did not induce luciferase activity above the 1.5-fold threshold | n.i. | 1.09 | 90.3 | 3200 | no significant peptide depletion | – | – | – |
| C/C=C/C(=O)C1C(C)C=CCC1(C)C (stereo not shown) [Damascone delta™, (2E)-1-(2′,6′,6′-trimethylcyclohex-3′-en-1′-yl)but-2-en-1-one] | – | – | – | – | – | – | – | 4 | 8.7 | significantly sensitizing compound |
| CC=C(C)C(=O)C1CCC=CC1C (stereo not drawn) [Example 8, (2E,1′R*,2′R*)-2-Methyl-1-(2′-methylcyclohex-3′-en-1′-yl)but-2-en-1-one] | – | – | n.i. | 1.35 | 316.4 | – | – | – | – | – |
